Experimental data from patent US20040180931A1, “Methods for treating Parkinson's disease” (priority 2000, published 2004).

Legend:
Assay type in all cases: in vivo, humans
[1] = tested on: patients with Parkinson's disease who were suffering from dementia; assay: Mini-Mental State Examination (MMSE) in randomized, placebo-controlled, double-blind crossover study; conditions: 5 mg or 10 mg donepezil, 10 weeks, start of treatment to week 10
Protocol: (§1) A randomized, placebo-controlled, double-blind crossover study was conducted with fourteen patients with Parkinson's disease (13 men, 1 woman; mean age 78 (SD 3.6) years; mean duration of illness 11.4 (SD 4.9) years) who had developed cognitive impairments (mean Mini-Mental State Examination (MMSE) score 20.7 (SD 3.3)) 8.6 (SD 5.8) years after the onset of parkinsonism. […] At weeks 6 and 10 the patients completed a battery of cognitive tests. Cognitive impairments were measured using the MMSE and the CIBIC, a 7-point scale of the clinician's interview-based impression of change based upon information scored independently of the MMSE. Parkinsonism was assessed using the Unified Parkinson's Disease Rating Scale (UPDRS).

[2] = tested on: patients with Parkinson's disease who were suffering from dementia; assay: CIBIC+ (clinician's interview-based impression of change) in randomized, placebo-controlled, double-blind crossover study
Protocol: as §1

[3] = tested on: patients with Parkinson's disease and mild or moderate dementia; assay: Overall efficacy / cognitive function in crossover study
Protocol: as §1

## COc1cc2c(cc1OC)C(=O)C(CC1CCN(Cc3ccccc3)CC1)C2 (stereo not drawn) [donepezil, 1-benzyl-4-((5,6-dimethoxy-1-indanon)-2-yl)methylpiperidine]
[1]
  mean MMSE score difference from baseline to week 10: 2.1 points
[2]; 5 mg or 10 mg donepezil, week 10, 7-point scale
  mean CIBIC+ score at week 10: 3.3
[2]; 10 weeks of treatment
  CIBIC+ response rate (improvement, CIBIC+ score of 3 or lower): 42%
  number of patients with improvement (CIBIC+ score of 3 or lower): 5 patients
[3]; in vivo
  all efficacy measures versus placebo: numerical benefit
[3]; treated for 10 weeks
  cognitive function: improvement
